From ChEMBL document CHEMBL1155386, “Synthesis and evaluation of 2-pyridylbenzothiazole, 2-pyridylbenzoxazole and 2-pyridylbenzofuran derivatives as 11C-PET imaging agents for beta-amyloid plaques” (Bioorg Med Chem Lett, 2010)
pIC50: −log10 of the molar value. Calls of active or inactive are those of the source. The rule behind the calls is not given here.

Tests used:
[1] = target: T1, Amyloid-beta precursor protein (Homo sapiens, UniProt P05067); experiment: Displacement of [3H]PIB from human amyloid beta (1 to 40) after 30 mins by liquid scintillation counting
T1 sequence (P05067 whole entry): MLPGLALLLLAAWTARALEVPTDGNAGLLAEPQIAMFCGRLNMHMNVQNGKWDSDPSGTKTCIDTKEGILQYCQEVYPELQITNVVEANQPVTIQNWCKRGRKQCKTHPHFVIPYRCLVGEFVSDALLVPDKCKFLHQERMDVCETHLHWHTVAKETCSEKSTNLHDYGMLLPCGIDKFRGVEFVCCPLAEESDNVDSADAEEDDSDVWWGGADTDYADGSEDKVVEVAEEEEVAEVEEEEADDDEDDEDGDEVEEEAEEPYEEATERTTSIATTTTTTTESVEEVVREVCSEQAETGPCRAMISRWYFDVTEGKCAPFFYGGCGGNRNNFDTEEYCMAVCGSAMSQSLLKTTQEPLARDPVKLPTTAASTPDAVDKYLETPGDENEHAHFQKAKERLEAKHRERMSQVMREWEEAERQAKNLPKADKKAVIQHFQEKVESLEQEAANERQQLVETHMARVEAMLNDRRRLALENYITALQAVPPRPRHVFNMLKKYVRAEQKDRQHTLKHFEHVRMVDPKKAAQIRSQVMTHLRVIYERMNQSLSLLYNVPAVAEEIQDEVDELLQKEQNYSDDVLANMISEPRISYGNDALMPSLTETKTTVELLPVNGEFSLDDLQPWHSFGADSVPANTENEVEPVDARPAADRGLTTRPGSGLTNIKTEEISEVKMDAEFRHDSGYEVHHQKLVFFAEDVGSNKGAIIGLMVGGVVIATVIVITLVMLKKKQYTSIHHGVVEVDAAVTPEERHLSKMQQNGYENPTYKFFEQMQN

[2] = Lipophilicity, log D of the compound; format: physicochemical; conditions: octanol/water
[3] = target: T1, Amyloid-beta precursor protein; experiment: Binding affinity to Abeta (1 to 40) in brain cortex of patient with Alzheimer's disease by autoradiography relative to non-specific unlabelled PIB binding; format: tissue-based; conditions: tested as the 3H-labelled form
[4] = system: Mus musculus; experiment: Ex vivo binding affinity to amyloid beta (1 to 40) of APP/PS1 transgenic mouse brain at 10.3 nmol/kg, iv after 10 mins by autoradiography; format: functional, organism-based; conditions: tested as the 3H-labelled form

SMILES | pIC50 [1] | logD [2] | Activity [3] | Activity [4]
COc1ccc2nc(-c3ccc(N(C)C)nc3)sc2c1 | 7.09 | 4.2 |  | 
[3H]N(c1ccc(-c2nc3ccc(OC)cc3s2)cn1)C([3H])([3H])[3H] | 7.24 | 3.2 |  | 
COc1ccc2nc(-c3ccc(N(C)C)nc3)oc2c1 |  |  | inactive | 
[3H]N(c1ccc(-c2nc3ccc(O)cc3s2)cn1)C([3H])([3H])[3H] | 7.24 | 1.8 |  | 
CN(C)c1ccc(-c2nc3ccc(O)cc3s2)cn1 |  |  | inactive | 
[3H]N(c1ccc(-c2nc3ccc(O)cc3o2)cn1)C([3H])([3H])[3H] | 6.74 | 1.3 |  | 
CN(C)c1ccc(-c2nc3cc(O)ccc3o2)cn1 | 6.86 | 2.2 |  | 
CNc1ccc(-c2nc3ccc(OC)cc3o2)cn1 |  | 2.7 |  | 
[3H]C([3H])([3H])N(c1ccc(-c2nc3ccc(O)cc3o2)cn1)C([3H])([3H])[3H] | 7.07 | 1.9 |  | 
[3H]C([3H])([3H])N(c1ccc(-c2nc3ccc(O)cc3s2)cn1)C([3H])([3H])[3H] | 7.72 | 2.4 |  | 
CNc1ccc(-c2nc3cc(O)ccc3s2)cn1 | 7.13 | 1.5 |  | 
CNc1ccc(-c2cc3ccc(OC)cc3o2)cn1 | 7.18 | 3.8 |  | 
CNc1ccc2nc(-c3ccc(C(N)=O)nc3)sc2c1 | 7.46 | 1.7 |  | 
CNc1ccc(-c2nc3ccc(C(N)=O)cc3s2)cn1 | 7.07 | 0.5 |  | 
CN(C)c1ncc(-c2nc3ccc(O)cc3s2)cn1 | 7.39 | 2.2 |  | 
CNc1ccc(-c2nc3ccc(OC)cc3s2)cn1 |  |  | inactive | 
COc1ccc2cc(-c3ccc(C(N)=O)cn3)oc2c1 | 7.48 | 2.8 |  | 
CNc1ccc(-c2nc3ccc(O)cc3o2)cn1 |  |  | Active | Active
COc1ccc2cc(-c3ccc(C(N)=O)nc3)oc2c1 | 7.22 | 1.7 |  | 
[3H]C([3H])([3H])N(c1ccc(-c2nc3ccc(OC)cc3o2)cn1)C([3H])([3H])[3H] | 6.69 | 3.7 |  | 
[3H]C([3H])([3H])N(c1ncc(-c2nc3ccc(O)cc3o2)cn1)C([3H])([3H])[3H] | 7.12 | 1.8 |  | 
CNc1ccc(-c2cc3ccc(O)cc3o2)cn1 | 7.35 | 2 |  | 
CNc1ccc(-c2nc3ccc(O)cc3s2)cc1 |  |  |  | Active
CNc1ncc(-c2nc3ccc(O)cc3s2)cn1 | 6.57 | 0.9 |  | 
CNc1ccc(-c2nc3ccc(O)cc3s2)cn1 |  |  | Active | Active
